Measurements as given in the NIST ThermoML archive (doi:10.1021/je700205n).

Conditions: Liquid

CCCCCCCCn1cc[n+](C)c1.O=S(=O)([N-]S(=O)(=O)C(F)(F)F)C(F)(F)F
mass density [kg/m3]
Conditions	293.15 K	303.15 K	313.15 K	323.15 K	333.15 K	343.15 K	353.15 K	393.15 K
100 kPa	1328	1315	1305	1296	1286	1278	1269	1236
1000 kPa	1328	1316	1306	1296	1287	1278	1270	1237
2000 kPa	1329	1317	1307	1297	1288	1279	1270	1238
3000 kPa	1330	1317	1307	1298	1289	1280	1271	1239
4000 kPa	1330	1318	1308	1299	1289	1281	1272	1240
5000 kPa	1331	1319	1309	1299	1290	1282	1273	1241
7500 kPa	1333	1321	1311	1301	1292	1284	1275	1243
10000 kPa	1334	1322	1312	1303	1294	1286	1277	1246
15000 kPa	1338	1326	1316	1307	1298	1290	1282	1251
20000 kPa	1341	1329	1320	1311	1302	1294	1286	1256
25000 kPa	1345	1333	1324	1315	1306	1298	1290	1261
30000 kPa	1348	1337	1327	1319	1310	1303	1294	1266

CCCCCCCn1cc[n+](C)c1.O=S(=O)([N-]S(=O)(=O)C(F)(F)F)C(F)(F)F
mass density [kg/m3]
Conditions	293.15 K	303.15 K	313.15 K	323.15 K	333.15 K	343.15 K	353.15 K	393.15 K
100 kPa	1352	1342	1332	1322	1313	1304	1295	1261
1000 kPa	1353	1343	1333	1323	1314	1304	1296	1262
2000 kPa	1354	1343	1333	1324	1315	1305	1296	1263
3000 kPa	1354	1344	1334	1325	1316	1306	1297	1264
4000 kPa	1355	1345	1335	1325	1317	1307	1298	1265
5000 kPa	1356	1346	1336	1326	1317	1308	1299	1266
7500 kPa	1358	1347	1338	1328	1319	1310	1301	1268
10000 kPa	1359	1349	1339	1330	1321	1312	1303	1271
15000 kPa	1363	1353	1343	1334	1325	1316	1308	1276
20000 kPa	1366	1357	1347	1338	1329	1320	1312	1281
25000 kPa	1370	1360	1351	1342	1333	1324	1316	1285
30000 kPa	1373	1364	1355	1345	1337	1328	1320	1290
